Reference: patent publication US10280184B2, “Heterocyclic kinase inhibitors” (AbbVie Inc., priority 2014, dated 2019)

How the values were obtained:
CSF-1R = CSF-1R (Homo sapiens (Human), UniProt P07333); assay: In vitro CSF-1R kinase activity measured by trFRET; format: biochemical; settings: recombinant human catalytic domain (aa 538-910), 0.1 mM ATP; read-out: CSF-1R enzyme IC50
Protocol: In Vitro CSF-1R Kinase Activity Measured by Time-Resolved Fluorescence Resonance Energy Transfer (trFRET)
(§1) The CSF-1R construct corresponds to recombinant human catalytic domain (aa 538-910), which was purchased from Invitrogen (cat #PV4092). CSF-1R was mixed with peptide substrate (biotin-TYR1, Sequence: Biotin-(Ahx)-GAEEEIYAAFFA-COOH, 4 μM final) at varying inhibitor concentrations in reaction buffer: 50 mM MOPSO pH 6.5, 10 mM MgCl2, 2 mM MnCl2, 2.5 mM DTI, 0.01% BSA, 0.1 mM Na3VO4 and 0.1 mM ATP. After about 60 min incubation at rt, the reaction was quenched by addition of EDTA (final concentration: 100 mM) and developed by addition of detection reagents (final approximate concentrations: 30 mM HEPES pH 7.0, 0.06% BSA, 0.006% Tween-20, 0.24 M KF, 80 ng/mL PT66K (europium labeled anti-phosphotyrosine antibody cat #61T66KLB Cisbio, Bedford, Mass.) and 0.6 μg/mL SAXL (Phycolink streptavidin-allophycocyanin acceptor, cat #PJ25S, Prozyme, San Leandro, Calif.). The developed reaction was incubated in the dark for about 60 min at rt, then read via a time-resolved fluorescence detector (Rubystar, BMG) using a 337 nm laser for excitation and monitoring emission wavelength at 665 nm. Within the linear range of the assay, the observed signal at 665 nm was directly related to phosphorylated product and can be used to calculate the IC50 values.

BTK = BTK (Homo sapiens (Human), UniProt Q06187); assay: In vitro BTK kinase activity measured by trFRET; format: biochemical; settings: recombinant human catalytic domain (aa 393-659), 0.01 mM ATP; read-out: Btk enzyme IC50
Protocol: In Vitro BTK Kinase Activity Measured by Time-Resolved Fluorescence Resonance Energy Transfer (trFRET)
as §1, with “The in-house BTK” for “The CSF-1R construct”, “(aa 393-659),” for “(aa 538-910),”, “was expressed in SF9 cells with an N-terminal his tag and purified by immobilized metal affinity chromatography. BTK” for “was purchased from Invitrogen (cat #PV4092). CSF-1R”, “Biotin-(Ahx)-GAEEEIYAAFFA-COOH, 0.4” for “Biotin-(Ahx)-GAEEEIYAAFFA-COOH, 4”, “mM DTT,” for “mM DTI,”, “and 0.01” for “and 0.1”

Sequence of CSF-1R (P07333 538-910): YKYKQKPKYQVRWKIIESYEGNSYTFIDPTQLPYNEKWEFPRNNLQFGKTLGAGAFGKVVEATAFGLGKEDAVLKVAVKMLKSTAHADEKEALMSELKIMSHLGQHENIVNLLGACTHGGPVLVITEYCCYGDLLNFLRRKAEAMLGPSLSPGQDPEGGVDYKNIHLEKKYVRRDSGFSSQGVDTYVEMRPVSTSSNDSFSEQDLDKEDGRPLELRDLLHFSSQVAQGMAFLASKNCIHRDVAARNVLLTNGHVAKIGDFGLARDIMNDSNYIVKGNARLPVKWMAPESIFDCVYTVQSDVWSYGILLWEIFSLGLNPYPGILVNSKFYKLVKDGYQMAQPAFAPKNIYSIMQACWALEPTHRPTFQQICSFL
Sequence of BTK (Q06187 393-659): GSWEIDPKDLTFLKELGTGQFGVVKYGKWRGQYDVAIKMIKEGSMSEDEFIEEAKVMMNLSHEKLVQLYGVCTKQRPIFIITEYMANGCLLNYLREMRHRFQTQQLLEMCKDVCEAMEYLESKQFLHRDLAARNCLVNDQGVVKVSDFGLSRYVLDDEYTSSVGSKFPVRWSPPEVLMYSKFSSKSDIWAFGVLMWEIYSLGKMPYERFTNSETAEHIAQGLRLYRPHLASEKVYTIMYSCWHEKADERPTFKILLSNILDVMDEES

SMILES	IC50 (CSF-1R) [nM]	IC50 (BTK) [nM]
Cn1cc(Nc2nc([C@@H]3CCC[C@@H](O)C3)cn3ncnc23)cn1 (single isomer, unassigned) [Example 10]	< 100	
CC(C)(O)CCn1cc(Nc2nc(C3CCCCC3)cn3ncnc23)cn1 [A.1.1, 4-(4-((6-cyclohexyl-[1,2,4]triazolo[1,5-a]pyrazin-8-yl)amino)-1H-pyrazol-1-yl)-2-methylbutan-2-ol]	< 100	
Cn1cc(Nc2nc(C3CCC(C)(C)CC3)cn3ncnc23)cn1 [E.1.2, 6-(4,4-dimethylcyclohexyl)-N-(1-methyl-1H-pyrazol-4-yl)-[1,2,4]triazolo[1,5-a]pyrazin-8-amine]	< 100	
Cn1cc(Nc2nc([C@H]3CC[C@H](C)CC3)cn3ncnc23)cn1 [E.1.3]	< 100	
Cn1cc(Nc2nc([C@H]3CC[C@@H](C)CC3)cn3ncnc23)cn1 [E.1.4]	< 100	
Cn1cc(Nc2nc([C@H]3CC[C@H](C(F)(F)F)CC3)cn3ncnc23)cn1 [E.1.5, N-(1-methyl-1H-pyrazol-4-yl)-6-((1R,4R)-4-(trifluoromethyl)cyclohexyl)-[1,2,4]triazolo[1,5-a]pyrazin-8-amine]	< 100	
c1nc2c(Nc3cc4n(n3)CCOC4)cc(C3CCCCC3)cn2n1 [E.1.6, N-(6-cyclohexyl-[1,2,4]triazolo[1,5-a]pyridin-8-yl)-6,7-dihydro-4H-pyrazolo[5,1-c][1,4]oxazin-2-amine]	< 100	
CN1CCn2nc(Nc3cc(C4CCCCC4)cn4ncnc34)cc2C1 [E.1.7, 6-cyclohexyl-N-(5-methyl-4,5,6,7-tetrahydropyrazolo[1,5-a]pyrazin-2-yl)-[1,2,4]triazolo[1,5-a]pyridin-8-amine]	< 100	
CN1CCn2nc(Nc3cc(C4CCCC4)cn4ncnc34)cc2C1 [E.1.9, 6-cyclopentyl-N-(5-methyl-4,5,6,7-tetrahydropyrazolo[1,5-a]pyrazin-2-yl)-[1,2,4]triazolo[1,5-a]pyridin-8-amine]	< 100	
CC(C)(O)Cn1cc(Nc2nc(C3CCCCC3)cn3ncnc23)cn1 [Example 11, 1-(4-((6-cyclohexyl-[1,2,4]triazolo[1,5-a]pyrazin-8-yl)amino)-1H-pyrazol-1-yl)-2-methylpropan-2-ol]	< 100	
c1nc2c(Nc3cc4n(n3)CCOC4)cc(C3CCCC3)cn2n1 [Example 12, N-(6-cyclopentyl-[1,2,4]triazolo[1,5-a]pyridin-8-yl)-6,7-dihydro-4H-pyrazolo[5,1-c][1,4]oxazin-2-amine]	< 100	
OC1CCN(c2ccc(Nc3cc(C4CCCCC4)cn4ncnc34)nc2)CC1 [Example 13, 1-(6-((6-cyclohexyl-[1,2,4]triazolo[1,5-a]pyridin-8-yl)amino)pyridin-3-yl)piperidin-4-ol]	< 100	
C=CC(=O)N1CCC(c2cc(Nc3cc4n(n3)CCOC4)c3nccn3n2)C1 (stereo not shown) [F.1.41, 1-(3-(8-((6,7-dihydro-4H-pyrazolo[5,1-c][1,4]oxazin-2-yl)amino)imidazo[1,2-b]pyridazin-6-yl)pyrrolidin-1-yl)prop-2-en-1-one]		< 100
C=CC(=O)N1CC(c2cc(Nc3cc4n(n3)CCOC4)c3ncnn3c2)C1 [F.1.42]		< 100
C=CC(=O)N1CC[C@@H](c2cn3ncnc3c(Nc3ccc(OC)c(OC)c3)n2)C1 [F.1.112]		1000 to 50000
Cn1ccc(Nc2cc(C3CCN(C#N)C3)cn3ncnc23)n1 (stereo not shown) [I.1, 3-(8-((1-methyl-1H-pyrazol-3-yl)amino)-[1,2,4]triazolo[1,5-a]pyridin-6-yl)pyrrolidine-1-carbonitrile]		100 to 1000
Cn1ccc(Nc2cc(C3CCCN(C#N)C3)cn3ncnc23)n1 (stereo not shown) [I.1.1, 3-(8-((1-methyl-1H-pyrazol-3-yl)amino)-[1,2,4]triazolo[1,5-a]pyridin-6-yl)piperidine-1-carbonitrile]		100 to 1000
Cn1cc(Nc2nc(C3CCN(C#N)C3)cn3ncnc23)cn1 (stereo not shown) [I.1.2]		100 to 1000
N#CN1CCCC(c2cc(Nc3cc4n(n3)CCOC4)c3ncnn3c2)C1 (stereo not shown) [I.1.3, 3-(8-((6,7-dihydro-4H-pyrazolo[5,1-c][1,4]oxazin-2-yl)amino)-[1,2,4]triazolo[1,5-a]pyridin-6-yl)piperidine-1-carbonitrile]		100 to 1000
Cn1ccc(Nc2cc([C@H]3CCC[C@H](NC#N)C3)cn3ncnc23)n1 [I.1.4, N—((1S,3S)-3-(8-((1-methyl-1H-pyrazol-3-yl)amino)-[1,2,4]triazolo[1,5-a]pyridin-6-yl)cyclohexyl)cyanamide]		100 to 1000

Other lines, results leading:

IC50 (CSF-1R) [nM]	IC50 (BTK) [nM]	SMILES
< 100		c1nc2c(Nc3cnn(C4CCOCC4)c3)nc(C3CCCCC3)cn2n1 [A.1.2, 6-cyclohexyl-N-(1-(tetrahydro-2H-pyran-4-yl)-1H-pyrazol-4-yl)-[1,2,4]triazolo[1,5-a]pyrazin-8-amine]
< 100		c1nc2c(Nc3cnn(C4COC4)c3)nc(C3CCCCC3)cn2n1 [A.1.4, 6-cyclohexyl-N-(1-(oxetan-3-yl)-1H-pyrazol-4-yl)-[1,2,4]triazolo[1,5-a]pyrazin-8-amine]
< 100		c1nc2c(Nc3cn[nH]c3)nc(C3CCCCC3)cn2n1 [A.1.7, 6-cyclohexyl-N-(1H-pyrazol-4-yl)-[1,2,4]triazolo[1,5-a]pyrazin-8-amine]
< 100		CCOC(=O)[C@H]1CC[C@@H](n2cc(Nc3nc(C4CCCCC4)cn4ncnc34)cn2)CC1 [A.1.8, cis-ethyl 4-(4-((6-cyclohexyl-[1,2,4]triazolo[1,5-a]pyrazin-8-yl)amino)-1H-pyrazol-1-yl)cyclohexanecarboxylate]
< 100		c1nc2c(Nc3cnn(C4CCNCC4)c3)nc(C3CCCCC3)cn2n1 [D.1.1, 6-cyclohexyl-N-(1-(piperidin-4-yl)-1H-pyrazol-4-yl)-[1,2,4]triazolo[1,5-a]pyrazin-8-amine]
< 100		c1nc2c(Nc3cnn(C4CCNCC4)c3)nc(C3CCCC3)cn2n1 [D.1.2, 6-cyclopentyl-N-(1-(piperidin-4-yl)-1H-pyrazol-4-yl)-[1,2,4]triazolo[1,5-a]pyrazin-8-amine]
< 100		CC(C)n1cc(Nc2nc(C3CCCCC3)cn3ncnc23)cn1 [E.1.1, 6-cyclohexyl-N-(1-isopropyl-1H-pyrazol-4-yl)-[1,2,4]triazolo[1,5-a]pyrazin-8-amine]
< 100		Cn1cc(Nc2nc(C3CCCC3)cn3ncnc23)cn1 [E.1.8, 6-cyclopentyl-N-(1-methyl-1H-pyrazol-4-yl)-[1,2,4]triazolo[1,5-a]pyrazin-8-amine]
< 100		Cn1cc(Nc2nc(C3CCCCC3)cn3ncnc23)cn1 [E.1.10, 6-cyclohexyl-N-(1-methyl-1H-pyrazol-4-yl)-[1,2,4]triazolo[1,5-a]pyrazin-8-amine]
< 100		CN1CCC(n2cc(Nc3nc(C4CCCCC4)cn4ncnc34)cn2)CC1 [Example 14, 6-cyclohexyl-N-(1-(1-methylpiperidin-4-yl)-1H-pyrazol-4-yl)-[1,2,4]triazolo[1,5-a]pyrazin-8-amine]
< 100		OCCCn1cc(Nc2nc(C3CCCCC3)cn3ncnc23)cn1 [Example 15, 3-(4-((6-cyclohexyl-[1,2,4]triazolo[1,5-a]pyrazin-8-yl)amino)-1H-pyrazol-1-yl)propan-1-ol]
< 100		O=C(O)[C@H]1CC[C@@H](n2cc(Nc3nc(C4CCCCC4)cn4ncnc34)cn2)CC1 [Example 16, cis-4-(4-((6-cyclohexyl-[1,2,4]triazolo[1,5-a]pyrazin-8-yl)amino)-1H-pyrazol-1-yl)cyclohexanecarboxylic acid]
< 100		C[C@@H]1C[C@@H](n2cc(Nc3nc(C4CCCCC4)cn4ncnc34)cn2)C[C@H](C)N1 [Example 17, 6-cyclohexyl-N-(1-((2R,4S,6S)-2,6-dimethylpiperidin-4-yl)-1H-pyrazol-4-yl)-[1,2,4]triazolo[1,5-a]pyrazin-8-amine]
< 100		CC(=O)N1CCC(n2cc(Nc3nc(C4CCCCC4)cn4ncnc34)cn2)CC1 [F.1.43, 1-(4-(4-((6-cyclohexyl-[1,2,4]triazolo[1,5-a]pyrazin-8-yl)amino)-1H-pyrazol-1-yl)piperidin-1-yl)ethanone]
